# Assays:
# [1] = biological target: Fibroblast growth factor receptor 4 (Homo sapiens, UniProt P22455); assay: 5) 10 μL of EDTA and a test solution comprising labeled antibody were added, and the plate was incubated for 1 hour at room temperature. […] 7) The inhibition rates were calculated according to the fluorescence signal values.
# [2] = biological target: Fibroblast growth factor receptor 1 (Homo sapiens, UniProt P11362); assay: Enzymologic Experiment of FGFR1: In this experiment, the inhibitory effect of the compounds on FGFR1 kinase activity was tested by a fluorescence resonance energy transfer (TR-FRET) method, and the half maximal inhibitory concentration (IC50) of the compounds on the FGFR1 kinase activity was determined. 1) 1˜5 μL of FGFR1 enzyme solution was added to a 384-well plate, and the final concentration of the enzyme was 0.1˜5 nM. 2) 1˜5 μL of diluted solution in gradient of the compound was added. 3) 1˜5 μL of a substrate mixture containing substrate polypeptide with a final concentration of 5˜50 nM and ATP with a final concentration of 10˜200 μM was added. 4) The mixture was incubated for 0.5˜3 hours at room temperature. 5) 10 μL of EDTA and a test solution comprising labeled antibody were added, and the plate was incubated for 1 hour at room temperature. 6) The fluorescence signal values of each plate were determined by a microplate reader at 665 nm.7) The inhibition rates were calculated according to the fluorescence signal values.
# Sequence of Fibroblast growth factor receptor 1 (P11362 whole entry): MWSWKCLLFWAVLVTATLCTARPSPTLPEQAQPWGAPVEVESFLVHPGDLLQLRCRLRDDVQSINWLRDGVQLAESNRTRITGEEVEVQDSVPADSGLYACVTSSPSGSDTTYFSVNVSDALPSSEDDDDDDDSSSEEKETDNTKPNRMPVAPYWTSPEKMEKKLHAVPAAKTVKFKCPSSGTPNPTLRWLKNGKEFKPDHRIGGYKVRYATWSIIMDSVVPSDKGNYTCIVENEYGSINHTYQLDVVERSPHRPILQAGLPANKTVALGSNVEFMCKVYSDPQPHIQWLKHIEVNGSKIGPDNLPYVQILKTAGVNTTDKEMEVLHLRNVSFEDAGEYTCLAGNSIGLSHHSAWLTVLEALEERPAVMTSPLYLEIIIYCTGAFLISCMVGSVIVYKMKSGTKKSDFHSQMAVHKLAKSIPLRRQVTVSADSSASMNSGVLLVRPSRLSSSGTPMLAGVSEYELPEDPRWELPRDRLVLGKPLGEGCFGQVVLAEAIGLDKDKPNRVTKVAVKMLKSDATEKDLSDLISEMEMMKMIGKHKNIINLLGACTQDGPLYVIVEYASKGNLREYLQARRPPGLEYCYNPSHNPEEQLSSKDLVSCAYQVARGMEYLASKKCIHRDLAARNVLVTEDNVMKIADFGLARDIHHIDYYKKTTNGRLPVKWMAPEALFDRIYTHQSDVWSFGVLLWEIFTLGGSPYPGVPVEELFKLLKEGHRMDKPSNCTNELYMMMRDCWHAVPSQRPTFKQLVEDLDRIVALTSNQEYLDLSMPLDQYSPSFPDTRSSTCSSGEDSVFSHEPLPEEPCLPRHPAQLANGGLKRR
# Sequence of Fibroblast growth factor receptor 4 (P22455 whole entry): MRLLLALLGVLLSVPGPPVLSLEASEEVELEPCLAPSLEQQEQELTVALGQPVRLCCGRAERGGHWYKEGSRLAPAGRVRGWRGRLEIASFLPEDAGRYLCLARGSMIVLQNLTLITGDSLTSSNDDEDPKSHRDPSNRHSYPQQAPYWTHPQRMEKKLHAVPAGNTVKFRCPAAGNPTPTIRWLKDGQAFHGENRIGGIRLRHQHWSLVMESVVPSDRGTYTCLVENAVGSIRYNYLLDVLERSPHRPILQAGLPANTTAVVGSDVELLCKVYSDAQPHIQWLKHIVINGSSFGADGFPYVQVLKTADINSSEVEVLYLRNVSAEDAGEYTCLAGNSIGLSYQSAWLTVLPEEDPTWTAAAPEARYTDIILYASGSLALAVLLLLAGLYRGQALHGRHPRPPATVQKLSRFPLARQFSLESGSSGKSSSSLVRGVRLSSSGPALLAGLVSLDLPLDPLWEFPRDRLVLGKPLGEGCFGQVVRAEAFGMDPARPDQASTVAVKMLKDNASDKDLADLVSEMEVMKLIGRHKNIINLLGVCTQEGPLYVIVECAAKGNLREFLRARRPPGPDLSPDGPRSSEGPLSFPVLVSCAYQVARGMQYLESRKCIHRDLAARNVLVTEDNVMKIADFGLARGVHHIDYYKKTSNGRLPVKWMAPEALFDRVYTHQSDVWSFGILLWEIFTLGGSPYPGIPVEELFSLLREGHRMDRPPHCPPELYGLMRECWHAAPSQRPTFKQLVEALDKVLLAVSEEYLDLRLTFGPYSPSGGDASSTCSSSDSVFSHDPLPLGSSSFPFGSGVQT
SMILES,IC50 [1] [µM],IC50 [2] [µM]
COC[C@@H](C)Nc1cc(NC(=O)N2CCCc3cc(CN4CCCCOC4=O)c(C=O)nc32)ncc1C#N,0.00096,–
CO[C@@H]1CCCC1Nc1cc(NC(=O)N2CCCc3cc(CN4CCOCC4=O)c(C=O)nc32)ncc1C#N (stereo partly drawn),–,> 10
COCCNc1cc(NC(=O)N2CCCc3cc(CN4CCCCOC4=O)c(C=O)nc32)ncc1C#N,–,> 10

# — ChEMBL document CHEMBL5729737, “FGFR4 inhibitor, preparation method therefor, and applications thereof” (2023)
